Measurements published in patent US7888386B2, “3-(phenoxyphenylmethyl)pyrrolidine compounds” (Theravance, Inc., priority 2008, dated 2011).
Where two headings read alike, the source gives them in different places.

Assays:
hSERT = biological target: T1, hSERT (Homo sapiens, UniProt P31645); test: hSERT binding assay (Assay 1)
T1 construct: expressed in transfected cells; host or cells: HEK-293 derived cell line, stably transfected; membrane preparation
How it was run: (§1)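 Membranes from HEK-293 cells stably expressing human NET or SERT competed test compound against ^3H-nisoxetine (hNET) or ^3H-citalopram (hSERT). Buffer was 50 mM Tris-HCl pH 7.4, 120 mM NaCl, 5 mM KCl, 0.1% BSA and 400 μM ascorbic acid.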

hNET = biological target: T2, hNET (Homo sapiens, UniProt P23975); test: hNET binding assay (Assay 1)
T2 construct: expressed in transfected cells; host or cells: HEK-293 derived cell line, stably transfected; membrane preparation
T2 sequence (P23975 whole entry): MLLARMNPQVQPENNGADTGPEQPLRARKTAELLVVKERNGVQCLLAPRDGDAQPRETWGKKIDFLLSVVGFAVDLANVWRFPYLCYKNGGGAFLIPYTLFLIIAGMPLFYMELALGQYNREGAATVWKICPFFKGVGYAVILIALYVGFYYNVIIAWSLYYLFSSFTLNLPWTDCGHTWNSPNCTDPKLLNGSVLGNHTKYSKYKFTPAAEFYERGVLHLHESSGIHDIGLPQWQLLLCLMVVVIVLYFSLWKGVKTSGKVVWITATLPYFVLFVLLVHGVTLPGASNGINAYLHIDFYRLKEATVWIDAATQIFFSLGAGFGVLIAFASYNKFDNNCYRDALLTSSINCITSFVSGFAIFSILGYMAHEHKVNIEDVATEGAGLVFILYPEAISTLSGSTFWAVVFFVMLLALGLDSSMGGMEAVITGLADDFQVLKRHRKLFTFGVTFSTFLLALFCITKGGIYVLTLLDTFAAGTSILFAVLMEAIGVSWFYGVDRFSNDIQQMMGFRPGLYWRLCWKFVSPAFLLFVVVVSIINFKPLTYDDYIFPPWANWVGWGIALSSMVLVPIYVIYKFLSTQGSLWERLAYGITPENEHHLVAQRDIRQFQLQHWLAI
How it was run: as §1

[1] = Thermal analysis (DSC) of crystalline salt; assay type: physicochemical; conditions: crystalline monohydrochloride salt, heating ramp 10° C./min
Procedure: Differential scanning calorimetry (DSC) was performed using a TA Instruments Model Q-100 module with a Thermal Analyst controller. Data were collected and analyzed using TA Instruments Thermal Solutions software. A 1.64 mg sample of the crystalline form of Example 2 was accurately weighed into a covered aluminum pan. After a 5 minute isothermal equilibration period at 22° C., the sample was heated using a linear heating ramp of 10° C./min from 22° C. to 250° C.

[2] = ratio of binding Ki at hSERT to Ki at hNET, rounded off to the nearest tenth
[3] = membranes of HEK-293 cells expressing hNET, 1.0 nM 3H-nisoxetine, read-out: NET pKi (converted)
[4] = ratio of SERT Ki to NET Ki from binding assays
[5] = hNET binding assay, read-out: NET pKi (converted)
[6] = ratio of SERT Ki to NET Ki (binding)
[7] = hNET binding, read-out: NET pKi (converted)

T1 sequence (P31645 whole entry): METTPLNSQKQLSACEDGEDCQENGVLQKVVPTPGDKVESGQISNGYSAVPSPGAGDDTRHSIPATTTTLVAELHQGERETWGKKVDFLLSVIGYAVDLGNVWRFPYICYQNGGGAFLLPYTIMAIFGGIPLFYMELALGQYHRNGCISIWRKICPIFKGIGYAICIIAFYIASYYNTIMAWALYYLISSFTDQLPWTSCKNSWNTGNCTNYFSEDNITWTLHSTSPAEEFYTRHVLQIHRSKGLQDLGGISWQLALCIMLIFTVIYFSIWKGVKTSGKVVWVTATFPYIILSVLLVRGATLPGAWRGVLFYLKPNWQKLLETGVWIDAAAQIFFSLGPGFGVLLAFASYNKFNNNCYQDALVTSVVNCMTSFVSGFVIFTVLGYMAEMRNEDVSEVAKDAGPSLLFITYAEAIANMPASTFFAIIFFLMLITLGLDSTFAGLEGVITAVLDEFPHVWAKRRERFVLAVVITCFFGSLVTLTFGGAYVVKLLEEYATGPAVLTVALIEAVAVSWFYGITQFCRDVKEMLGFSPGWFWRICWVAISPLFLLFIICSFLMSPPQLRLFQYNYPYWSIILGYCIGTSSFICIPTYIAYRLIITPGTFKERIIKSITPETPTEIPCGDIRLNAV

Row | SMILES | SERT Ki/NET Ki (hSERT; [2]) | Ki (hNET; [3]) [nM] | other results
1 | COc1ccccc1OC(c1ccccc1Cl)C1CCNC1 (centres unmarked) [Compound 20-16] | 4 | 1.26 | 
2 | COc1ccccc1OC(c1ccccc1Cl)C1CCNC1 (centres unmarked) [Compound 20-17] | 13 | 1 | 
3 | COc1ccccc1OC(c1ccc(Cl)cc1)C1CCNC1 (centres unmarked) [Compound 20-21] | 4 | 2 | 
4 | COc1ccccc1OC(c1ccccc1OC(F)(F)F)C1CCNC1 (centres unmarked) [Compound 20-23] | 1.6 | 5.01 | 
5 | COc1ccccc1OC(c1cccc(CO)c1)C1CCNC1 (centres unmarked) [Compound 20-26] | 10 | 3.98 | 
6 | COc1ccccc1OC(c1cccc(C(N)=O)c1)C1CCNC1 (centres unmarked) [Compound 20-30] | 25 | 2.51 | 
7 | COc1ccccc1O[C@H](c1cc(F)cc(F)c1)[C@@H]1CCNC1 [Compound 20-34] | 1 | 3.98 | 
8 | COc1ccccc1OC(c1cc(F)cc(Cl)c1)C1CCNC1 (centres unmarked) [Compound 20-35] | 16 | 0.631 | 
9 | Fc1cccc(OC(c2ccccc2)C2CCNC2)c1 (centres unmarked) [Compound 21-1] | 1 | 3.98 | 
10 | Brc1cccc(OC(c2ccccc2)C2CCNC2)c1 (centres unmarked) [Compound 21-5] | 0.2 | 3.16 | 
11 | Ic1cccc(OC(c2ccccc2)C2CCNC2)c1 (centres unmarked) [Compound 21-6] | 0.2 | 3.98 | 
12 | Cc1cccc(OC(c2ccccc2)C2CCNC2)c1 (centres unmarked) [Compound 21-7] | 0.5 | 3.98 | 
13 | Cc1cccc(O[C@@H](c2ccccc2)[C@H]2CCNC2)c1 [Compound 21-8] | 2.5 | 6.31 | 
14 | c1ccc(Oc2cccc(OC(c3ccccc3)C3CCNC3)c2)cc1 (centres unmarked) [Compound 21-13] | 1.3 | 1.26 | 
15 | Clc1cccc(Oc2cccc(OC(c3ccccc3)C3CCNC3)c2)c1 (centres unmarked) [Compound 21-14] | 0.8 | 5.01 | 
16 | Clc1ccc(Oc2cccc(OC(c3ccccc3)C3CCNC3)c2)cc1 (centres unmarked) [Compound 21-16] | 0.3 | 6.31 | 
17 | Fc1cccc(C(Oc2cccc(Cl)c2)C2CCNC2)c1 (centres unmarked) [Compound 22-3] | 0.1 | 7.94 | 
18 | Clc1cccc(OC(c2cccc(Cl)c2)C2CCNC2)c1 (centres unmarked) [Compound 22-4] | 0.2 | 7.94 | 
19 | Cc1ccc(OC(c2ccccc2)C2CCNC2)cc1 (centres unmarked) [Compound 23-6] | 0.2 | 6.31 | 
20 | c1ccc(COc2ccc(OC(c3ccccc3)C3CCNC3)cc2)cc1 (centres unmarked) [Compound 23-15] | 2 | 7.94 | 
21 | Fc1cccc(OC(c2ccccc2)C2CCNC2)c1F (centres unmarked) [Compound 25-1] | 32 | 0.794 | 
22 | Fc1cccc(O[C@H](c2ccccc2)[C@@H]2CCNC2)c1F [Compound 25-2] | 0.2 | 6.31 | 
23 | Fc1c(Cl)cccc1OC(c1ccccc1)C1CCNC1 (centres unmarked) [Compound 25-3] | 0.5 | 0.794 | 

Row | SMILES | SERT Ki/NET Ki (hSERT; [2]) | Ki (hNET; [3]) [nM] | other results
24 | Fc1c(Cl)cccc1O[C@H](c1ccccc1)[C@@H]1CCNC1 [Compound 25-5] | 0.1 | 1.58 | 
25 | Fc1c(Oc2ccccc2)cccc1OC(c1ccccc1)C1CCNC1 (centres unmarked) [Compound 25-8] | 1.3 | 2.51 | 
26 | Clc1c(Oc2ccccc2)cccc1OC(c1ccccc1)C1CCNC1 (centres unmarked) [Compound 25-15] | 0.2 | 2.51 | 
27 | Cc1c(F)cccc1O[C@@H](c1ccccc1)[C@H]1CCNC1 [Compound 25-19] | 4 | 0.794 | 
28 | Cc1c(Cl)cccc1OC(c1ccccc1)C1CCNC1 (centres unmarked) [Compound 25-20] | 0.2 | 0.631 | 
29 | Cc1c(Cl)cccc1OC(c1ccccc1)C1CCNC1 (centres unmarked) [Compound 25-21] | 0.6 | 1.26 | 
30 | Cc1c(Cl)cccc1O[C@H](c1ccccc1)[C@@H]1CCNC1 [Compound 25-22] | 0.2 | 0.631 | 
31 | Cc1cccc(OC(c2ccccc2)C2CCNC2)c1C (centres unmarked) [Compound 25-23] | 0.1 | 1.58 | 
32 | Cc1cccc(O[C@@H](c2ccccc2)[C@H]2CCNC2)c1C [Compound 25-24] | 0.3 | 2.51 | 
33 | COc1c(F)cccc1O[C@@H](c1ccccc1)[C@H]1CCNC1 [Compound 25-26] | 13 | 1.26 | 
34 | CC(=O)c1c(F)cccc1OC(c1ccccc1)C1CCNC1 (centres unmarked) [Compound 25-30] | 10 | 3.16 | 
35 | COC(=O)c1c(F)cccc1OC(c1ccccc1)C1CCNC1 (centres unmarked) [Compound 25-34] | 100 | 1 | 
36 | Fc1ccccc1C(Oc1cccc(Cl)c1Cl)C1CCNC1 (centres unmarked) [Compound 26-1] |  |  | SERT Ki/NET Ki (hSERT; [4]): 0.1; Ki (hNET; [5]): 1.58 nM
37 | Clc1cccc(C(Oc2cccc(Cl)c2Cl)C2CCNC2)c1 (centres unmarked) [Compound 26-3] |  |  | SERT Ki/NET Ki (hSERT; [4]): 0.1; Ki (hNET; [5]): 5.01 nM
38 | COc1cccc(C(Oc2cccc(Cl)c2Cl)C2CCNC2)c1 (centres unmarked) [Compound 26-6] |  |  | SERT Ki/NET Ki (hSERT; [4]): 0.1; Ki (hNET; [5]): 3.98 nM
39 | CCOc1ccccc1OC(c1ccccc1)C1CCNC1 (centres unmarked) [Ex. 5, 3-[(2-Ethoxyphenoxy)phenylmethyl]pyrrolidine] | 32 | 1.26 | 
40 | Fc1cc(F)c(Cl)c(O[C@@H](c2ccccc2)[C@H]2CCNC2)c1 [Ex. 8-1, (S)-3-[(R)-(2-Chloro-3,5-difluorophenoxy)phenylmethyl]pyrrolidine] |  |  | SERT Ki/NET Ki (hSERT; [6]): 2.5; Ki (hNET; [7]): 2 nM
41 | Fc1cccc(O[C@@H](c2ccccc2)[C@H]2CCNC2)c1Cl [Ex. 9-4, (S)-3-[(R)-(2-chloro-3-fluorophenoxy)phenylmethyl]pyrrolidine] | 6.3 | 0.631 | 
42 | Clc1cc(Cl)c(Cl)c(OC(c2ccccc2)C2CCNC2)c1Cl (centres unmarked) [Ex. 10-2, 3-[phenyl-(2,3,5,6-tetrachlorophenoxy)methyl]pyrrolidine] |  |  | SERT Ki/NET Ki (hSERT; ratio of binding Ki at SERT to Ki at NET, the tables list only compounds with a ratio in the range 0.1-100): 0.1; Ki (hNET; NET pKi, hNET binding, the tables list only compounds with NET pKi≧8): 1.26 nM
43 | Fc1cc(F)c(Cl)c(O[C@@H](c2ccccc2)[C@H]2CCNC2)c1Cl [Ex. 11, (S)-3-[(R)-(2,6-dichloro-3,5-difluorophenoxy)phenylmethyl]pyrrolidine] |  |  | no thermal decomposition below (DSC) [1]: ≥ 190.7 °C
44 | Cc1ccc(F)c(O[C@@H](c2ccccc2)[C@H]2CCNC2)c1Cl [Ex. 13, (S)-3-[(R)-(2-chloro-6-fluoro-3-methylphenoxy)phenylmethyl]pyrrolidine] |  |  | SERT Ki/NET Ki (hSERT; [6]): 1.3; Ki (hNET; [7]): 0.251 nM
45 | Fc1ccc(F)c(O[C@H](c2ccccc2)[C@@H]2CCNC2)c1Cl [Ex. 14, (R)-3-[(S)-(2-chloro-3,6-difluorophenoxy)phenyl-methyl]pyrrolidine] |  |  | no thermal decomposition below (DSC) [1]: ≥ 160 °C
46 | Clc1cc(Cl)cc(O[C@H](c2ccccc2)[C@@H]2CCNC2)c1 [Ex. 16, (R)-3-[(S)-(3,5-Dichlorophenoxy)phenylmethyl]pyrrolidine] |  |  | no thermal decomposition below (DSC) [1]: ≥ 220 °C
